Results: ChEMBL document CHEMBL3991601, “The target landscape of clinical kinase drugs” (Science, 2017)
Calls of active or inactive are those of the source.

Experiments:
[1] = molecular target: T1, Mitogen-activated protein kinase kinase kinase kinase 3 (Homo sapiens, UniProt Q8IVH8)
T1 sequence (Q8IVH8 whole entry): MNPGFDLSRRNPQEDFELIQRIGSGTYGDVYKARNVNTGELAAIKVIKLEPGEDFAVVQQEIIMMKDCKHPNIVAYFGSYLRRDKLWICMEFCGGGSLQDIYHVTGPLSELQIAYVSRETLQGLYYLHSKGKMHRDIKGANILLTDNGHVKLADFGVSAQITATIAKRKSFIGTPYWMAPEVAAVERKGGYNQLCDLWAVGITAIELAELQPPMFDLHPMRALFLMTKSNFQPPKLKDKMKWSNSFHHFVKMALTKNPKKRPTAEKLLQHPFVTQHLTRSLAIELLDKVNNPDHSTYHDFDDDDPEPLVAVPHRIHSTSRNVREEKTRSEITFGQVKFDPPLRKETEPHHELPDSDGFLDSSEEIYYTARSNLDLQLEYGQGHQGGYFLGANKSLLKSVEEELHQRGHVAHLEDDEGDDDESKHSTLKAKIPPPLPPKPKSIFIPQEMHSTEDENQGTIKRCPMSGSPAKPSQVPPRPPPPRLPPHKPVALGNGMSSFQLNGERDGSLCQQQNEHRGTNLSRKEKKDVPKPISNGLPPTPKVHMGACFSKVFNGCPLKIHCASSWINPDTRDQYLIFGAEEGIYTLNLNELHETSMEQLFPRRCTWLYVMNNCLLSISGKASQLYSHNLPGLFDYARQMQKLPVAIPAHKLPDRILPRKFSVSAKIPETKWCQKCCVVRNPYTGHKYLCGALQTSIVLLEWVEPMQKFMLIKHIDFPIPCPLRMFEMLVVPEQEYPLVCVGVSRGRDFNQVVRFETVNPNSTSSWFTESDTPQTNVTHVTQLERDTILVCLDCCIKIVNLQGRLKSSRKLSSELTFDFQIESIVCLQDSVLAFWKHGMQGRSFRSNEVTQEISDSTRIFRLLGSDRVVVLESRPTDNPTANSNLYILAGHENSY

[2] = molecular target: Mitogen-activated protein kinase 9 (Homo sapiens, UniProt P45984)
[3] = molecular target: Adenosine kinase (Homo sapiens, UniProt P55263)
[4] = molecular target: T2, MAP/microtubule affinity-regulating kinase 4 (Homo sapiens, UniProt Q96L34)
T2 sequence (Q96L34 whole entry): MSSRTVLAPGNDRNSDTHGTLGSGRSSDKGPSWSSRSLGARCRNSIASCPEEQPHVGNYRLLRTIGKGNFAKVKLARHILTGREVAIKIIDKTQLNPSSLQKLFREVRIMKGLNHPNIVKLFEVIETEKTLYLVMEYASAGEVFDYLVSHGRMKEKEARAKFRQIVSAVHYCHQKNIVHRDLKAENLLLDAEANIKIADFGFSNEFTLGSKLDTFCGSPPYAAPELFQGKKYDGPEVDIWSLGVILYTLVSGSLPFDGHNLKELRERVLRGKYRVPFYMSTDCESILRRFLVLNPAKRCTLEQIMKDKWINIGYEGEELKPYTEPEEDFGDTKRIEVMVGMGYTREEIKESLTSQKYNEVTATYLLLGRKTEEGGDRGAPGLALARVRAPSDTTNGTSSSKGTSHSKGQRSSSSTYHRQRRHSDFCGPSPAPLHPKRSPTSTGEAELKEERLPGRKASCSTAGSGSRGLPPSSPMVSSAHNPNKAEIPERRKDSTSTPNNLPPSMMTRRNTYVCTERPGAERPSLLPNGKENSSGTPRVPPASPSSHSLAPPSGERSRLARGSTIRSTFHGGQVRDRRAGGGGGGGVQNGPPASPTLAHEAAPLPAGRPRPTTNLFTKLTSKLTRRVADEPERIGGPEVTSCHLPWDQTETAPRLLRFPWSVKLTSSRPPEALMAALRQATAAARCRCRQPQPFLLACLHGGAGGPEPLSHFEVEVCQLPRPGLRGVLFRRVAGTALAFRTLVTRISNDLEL

[5] = molecular target: T3, Serine/threonine-protein kinase NLK (Homo sapiens, UniProt Q9UBE8)
T3 sequence (Q9UBE8 whole entry): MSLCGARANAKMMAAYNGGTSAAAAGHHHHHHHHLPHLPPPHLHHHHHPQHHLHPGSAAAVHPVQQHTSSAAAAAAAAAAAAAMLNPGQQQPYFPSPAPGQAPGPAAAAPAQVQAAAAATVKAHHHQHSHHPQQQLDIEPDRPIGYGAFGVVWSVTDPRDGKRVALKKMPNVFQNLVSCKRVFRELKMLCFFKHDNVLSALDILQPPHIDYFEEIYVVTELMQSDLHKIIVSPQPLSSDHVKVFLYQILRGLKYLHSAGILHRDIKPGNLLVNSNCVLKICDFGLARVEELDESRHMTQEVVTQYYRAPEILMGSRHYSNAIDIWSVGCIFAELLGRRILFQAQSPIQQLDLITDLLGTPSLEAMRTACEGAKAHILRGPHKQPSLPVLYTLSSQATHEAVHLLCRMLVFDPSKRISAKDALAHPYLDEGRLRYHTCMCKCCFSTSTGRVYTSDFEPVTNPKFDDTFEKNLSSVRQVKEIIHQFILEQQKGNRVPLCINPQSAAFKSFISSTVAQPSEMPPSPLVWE

[6] = molecular target: DNA topoisomerase 2-beta (Homo sapiens, UniProt Q02880)

Measured: Kd
Note: in the data inactive means no Kd found up to 30 µM.

Sequence of Mitogen-activated protein kinase 9 (P45984 whole entry): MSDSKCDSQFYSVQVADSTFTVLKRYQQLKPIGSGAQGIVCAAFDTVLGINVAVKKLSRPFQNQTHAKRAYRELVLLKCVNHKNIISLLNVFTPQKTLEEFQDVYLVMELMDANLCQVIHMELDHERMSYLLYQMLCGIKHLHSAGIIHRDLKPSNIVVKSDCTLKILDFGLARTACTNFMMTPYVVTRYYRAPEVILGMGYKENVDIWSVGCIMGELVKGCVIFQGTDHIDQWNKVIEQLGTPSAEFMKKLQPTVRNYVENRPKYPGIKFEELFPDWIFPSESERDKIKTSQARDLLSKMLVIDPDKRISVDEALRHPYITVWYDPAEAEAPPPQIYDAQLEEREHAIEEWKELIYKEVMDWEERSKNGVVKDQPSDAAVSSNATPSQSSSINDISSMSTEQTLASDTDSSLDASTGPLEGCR
Sequence of Adenosine kinase (P55263 whole entry): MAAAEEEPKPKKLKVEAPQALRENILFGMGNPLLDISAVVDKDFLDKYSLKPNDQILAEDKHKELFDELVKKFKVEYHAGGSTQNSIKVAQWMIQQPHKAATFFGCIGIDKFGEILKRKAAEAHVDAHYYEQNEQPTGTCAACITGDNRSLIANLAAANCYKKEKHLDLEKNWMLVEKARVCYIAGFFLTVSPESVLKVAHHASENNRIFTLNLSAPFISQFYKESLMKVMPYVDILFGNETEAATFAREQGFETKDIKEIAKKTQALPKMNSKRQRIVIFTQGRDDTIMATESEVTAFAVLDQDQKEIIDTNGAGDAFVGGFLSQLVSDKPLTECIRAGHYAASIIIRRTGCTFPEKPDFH
Sequence of DNA topoisomerase 2-beta (Q02880 whole entry): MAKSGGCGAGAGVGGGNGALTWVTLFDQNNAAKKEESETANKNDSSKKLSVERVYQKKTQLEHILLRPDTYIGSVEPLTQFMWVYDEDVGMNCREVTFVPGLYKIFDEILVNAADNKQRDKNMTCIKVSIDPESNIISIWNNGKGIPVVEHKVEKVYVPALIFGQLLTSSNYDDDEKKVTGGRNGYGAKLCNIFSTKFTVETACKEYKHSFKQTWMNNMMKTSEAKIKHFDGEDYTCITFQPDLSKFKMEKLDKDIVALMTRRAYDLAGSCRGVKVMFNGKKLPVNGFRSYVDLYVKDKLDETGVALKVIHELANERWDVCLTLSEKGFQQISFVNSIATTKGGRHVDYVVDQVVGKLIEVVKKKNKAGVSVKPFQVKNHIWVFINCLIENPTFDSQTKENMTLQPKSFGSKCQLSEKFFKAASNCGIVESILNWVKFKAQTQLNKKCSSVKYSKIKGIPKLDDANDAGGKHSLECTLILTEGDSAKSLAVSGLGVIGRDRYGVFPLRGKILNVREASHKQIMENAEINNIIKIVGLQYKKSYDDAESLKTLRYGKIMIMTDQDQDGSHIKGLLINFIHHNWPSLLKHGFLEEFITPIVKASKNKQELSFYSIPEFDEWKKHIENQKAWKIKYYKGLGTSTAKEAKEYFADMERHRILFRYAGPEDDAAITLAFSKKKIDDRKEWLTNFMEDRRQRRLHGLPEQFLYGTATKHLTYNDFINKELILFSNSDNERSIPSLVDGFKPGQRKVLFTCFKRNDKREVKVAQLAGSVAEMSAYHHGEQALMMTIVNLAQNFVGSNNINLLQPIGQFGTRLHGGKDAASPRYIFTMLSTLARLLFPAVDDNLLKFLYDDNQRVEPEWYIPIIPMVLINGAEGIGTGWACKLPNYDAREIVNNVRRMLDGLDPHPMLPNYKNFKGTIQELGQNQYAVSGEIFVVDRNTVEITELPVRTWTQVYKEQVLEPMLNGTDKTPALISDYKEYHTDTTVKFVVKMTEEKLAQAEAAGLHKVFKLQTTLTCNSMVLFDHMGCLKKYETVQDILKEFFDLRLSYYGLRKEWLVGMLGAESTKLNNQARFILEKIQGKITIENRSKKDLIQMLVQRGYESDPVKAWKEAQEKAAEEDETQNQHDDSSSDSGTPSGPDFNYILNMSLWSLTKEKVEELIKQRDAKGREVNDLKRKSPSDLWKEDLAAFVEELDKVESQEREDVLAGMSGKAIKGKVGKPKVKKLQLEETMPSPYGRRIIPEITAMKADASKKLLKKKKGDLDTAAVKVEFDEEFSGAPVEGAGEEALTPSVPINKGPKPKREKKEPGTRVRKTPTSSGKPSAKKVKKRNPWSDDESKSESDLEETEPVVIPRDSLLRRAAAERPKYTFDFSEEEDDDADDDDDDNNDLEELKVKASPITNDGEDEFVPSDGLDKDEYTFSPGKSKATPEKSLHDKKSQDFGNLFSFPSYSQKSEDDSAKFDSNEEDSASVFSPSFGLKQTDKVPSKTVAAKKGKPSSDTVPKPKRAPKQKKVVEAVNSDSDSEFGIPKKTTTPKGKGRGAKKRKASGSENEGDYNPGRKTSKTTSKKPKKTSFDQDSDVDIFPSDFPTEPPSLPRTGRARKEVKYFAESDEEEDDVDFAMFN

CN(C)C(=O)c1cc2cnc(Nc3ccc(N4CCNCC4)cn3)nc2n1C1CCCC1 [RIBOCICLIB]
inactive: [1] > 30 µM | [2] > 30 µM | [3] > 30 µM | [4] > 30 µM | [5] > 30 µM | [6] > 30 µM
